Results published in patent publication US20190083498A1, “THERAPIES FOR HEMATOLOGIC MALIGNANCIES” (GILEAD CALISTOGA LLC, priority 2008, published 2019).
Where “and” joins values, the source holds several entries; their conditions need not be identical. Equal values may be shown once.

How the values were obtained:
over 350 protein kinases = assay: Ambit KINOMEscan kinome-wide protein kinase screen; format: binding; details: 10 μM
From the text: Examples of some kinases in the screen are shown below in Table 3.

LB cells = assay: LB cell proliferation with or without BMSCs, [3H]-thymidine uptake; format: cell-based, human; details: 0.625 μM-10 μM, 48 hours
Description: LB cells were cultured with control media, and with the compound of formula I for 48 hours, in the presence or absence of BMSCs. Cell proliferation was assessed using [^3H]-thymidine uptake assay. All data represent mean (±SD) of triplicate experiment.

[1] = tested on: T-ALL and B-ALL leukemic cell lines; assay: Viability of ALL cell lines, AlamarBlue; format: cell-based; details: 48 hours
Description: Viability assays of cell lines were performed using the AlamarBlue assay (Invitrogen). Cells (1×10^6 per well) in a volume of 100 μL were placed in a 96-well flat-bottom plate and the compound of formula I (100 μL per well at 2× final concentration) or medium alone was added to the plates. All were performed in quadruplicate. Cells were incubated for fixed times (48 hours). After the incubation, 10 μL AlamarBlue® was added to each well. Cells were incubated for 4 hours and the optical density at 530-560 nm was obtained using a SpectraMax® M5 plate reader 2001. Cell viability was expressed as a percentage of absorption between treated cells/control sample.

phospho-Akt(Ser473) = assay: Constitutive Akt phosphorylation in leukemia and lymphoma cell lines, immunoblot; format: cell-based
Description: A large panel of leukemia and lymphoma cell lines was assessed for constitutive Akt phosphorylation. These cell lines represent B-lymphoma, T-lymphoma, ALL, Malignant histiocytosis, DLBCL and AML. […] Thereafter, cell were lysed, size-fractioned and immunoblotted with antibodies directed against phospho-Akt(Ser473).
The PI3K pathway is frequently deregulated in leukemia and lymphoma cell lines. […] In addition, PI3K pathway activation is dependent on p110δ.

leukemia cell lines = assay: Apoptosis in leukemia cell lines, Annexin V-FITC/7AAD; format: cell-based; details: 1 μM or 10 μM; 24 hrs
Description: The percentage of apoptotic cells was determined by Annexin V-FITC/7AAD staining.

[2] = tested on: cleavage of caspase 3 and PARP; assay: Caspase 3 and PARP cleavage, MSD multi-spot plates; format: cell-based; details: 5 or 10 μM; 24 hrs
Description: Thereafter, cells were lysed and sized-fractionated and immunoblotted with antibody directed against FLIP, FIG. 29. Additionally, whole cell lysates were added to MDS (Meso Scale Diagnostics) multi-spot 96-well 4 spot plates coated with Total caspase-3, cleaved caspase-3, cleaved PARP, and BSA. Proteins were detected with antibodies labeled with SULFO-TAG reagent and quantified.

[3] = Blood glucose and insulin levels of a subject; format: in vivo, human
[4] = tested on: p110δ-negative cell lines; assay: Growth inhibition of p110δ-negative MM cell lines, MTT; format: cell-based, human; details: 48 h
INA-6 cells = assay: AKT and ERK pathway phosphorylation, immunoblotting; format: cell-based, human
From the text: (§1) Whole-cell lysates were subjected to sodium dodecyl sulfate-polyacrylamide gel electrophoresis (SDS-PAGE) separation, transferred to Pure Nitrocellulose membranes (Bio-Rad Laboratories, Hercules, Calif.), and immunoblotted with anti-AKT, phospho(p)-AKT (Ser473, Thr 308), ERK1/2 , P-ERK1/2, P-PDK1, STAT, P-STAT, P-FKRHL, P-70S6K, LC3, and PI3K/p110 α Abs (Cell Signaling Danvers, Mass.); anti-p110β, PI3K/p110δ, Glyceraldehyde 3-phosphate dehydrogenase (GAPDH), α-tubulin, and actin Abs (Santa Cruz Biotechnology, Calif.); and anti-p110 γ Ab (Alexis, San Diego, Calif.): and anti-LC3 Ab (Abgent, San Diego, Calif.).
(§2) Actin Ab was used as a loading control. […] Whole cell lysates were subjected to immunoblotting using AKT, P-AKT (Ser473 and Thr308), ERK1/2, P-ERK1/2, P-PDK1, and P-FKRHL antibodies. α-tubulin is used as a loading control.

MM.1S cells = assay: AKT and ERK phosphorylation, immunoblotting; format: cell-based, human; details: MM.1S cells with low expression of P110δ; 6 hours
From the text: as §1, §2

INA-6 and LB MM cells = assay: Autophagy: LC3 accumulation, AVO acridine orange staining, LC3/beclin-1 western blot; format: cell-based, human
From the text: Samples were examined under a fluorescence microscope.
Autophagosome formation was defined by the accumulation of LC3; arrows indicate autophagosomes, FIG. 33A.
GAPDH served as a loading control.

BMSCs = assay: BMSC viability, MTT; format: cell-based, human; details: 0-20 μM, 48 h
Description: Cell viability was assessed by MTT assay, FIG. 34G. Values represent mean ±SD of triplicate cultures.

HuVEC cells = assay: AKT and ERK1/2 in HuVEC lysates, immunoblotting; format: cell-based, human; details: 0-200 μM; 8 h
From the text: Actin was used as a loading control.

FL cell lines = assay: PI3K signaling and apoptosis in follicular lymphoma cell lines; format: cell-based

CC[C@H](Nc1ncnc2[nH]cnc12)c1nc2cccc(F)c2c(=O)n1-c1ccccc1 [Compound I, 5-fluoro-3-phenyl-2-[1-(9H-purin-6-ylamino)-propyl]-3H-quinazolin-4-one]
off target activity in kinome-wide protein kinase screen (over 350 protein kinases): failed to detect any activity
off target activity in kinome-wide protein kinase screen (over 350 protein kinases; listed as compound of formula I): little activity
LB cell growth in the presence of BMSC (LB cells): reduced
cellular viability of ALL cell lines [1]: significant reduction in cell viability
cellular viability of ALL cell lines ([1]; listed as compound I): substantial reduction in cellular viability
cell lines in which constitutive AKT phosphorylation was inhibited (FIG. 9) (phospho-Akt(Ser473); 10 μM, 2 hrs, including B-cell and T-cell lymphomas): 11 out of 11
constitutive Akt(Ser473) phosphorylation (phospho-Akt(Ser473); hematopoietic tumor cell lines, 2 hours): Reduction in Akt(Ser473) was achieved for all cell lines
cell lines in which constitutive AKT phosphorylation was inhibited (phospho-Akt(Ser473); leukemia and lymphoma cell lines with constitutive p-AKT): 13 of 13 and 13 out of 13
apoptosis in leukemia cell lines (leukemia cell lines): induces apoptosis
cleavage of caspase 3 and PARP [2]: dose dependent response
insulin levels ([3]; after 7 days of treatment): remained within the normal range
blood glucose concentration ([3]; after 10 days, highest dosage (50-200 mg BID)): remained steady
cytotoxicity in p110δ-negative cell lines [4]: minimal cytotoxicity
phosphorylation of upstream PDK-1 and downstream FKHRL (INA-6 cells; INA-6 and LB MM cells, 0-6 hours): significantly inhibited
phosphorylation of AKT and ERK1/2 (INA-6 cells; p110δ positive INA-6 cells): significantly blocked
phosphorylation of AKT or ERK (MM.1S cells): did not affect
LC3 staining (immunofluorescence) (INA-6 and LB MM cells; 5 μM, 6 h, INA-6 and LB cells): markedly increased LC 3 staining
LC3-II and Beclin1 protein (INA-6 and LB MM cells; INA-6, 6 h): markedly increased
acidic vesicular organelles (acridine orange staining) (INA-6 and LB MM cells; LB and INA-6 cells): development of AVOs
growth inhibition in BMSCs (BMSCs): no significant growth inhibition
phosphorylation and expression of AKT and ERK1/2 (HuVEC cells): markedly down regulated
pAkt, Akt, pS6 and S6 in FL cell lines (FL cell lines; certain cell lines): reduction in the production of pAkt, Akt, pS6 and S6
cleavage of PARP and Caspase-3 in FL cell lines (FL cell lines; dose dependent, 24 hours, 0.1 μM and 0.5 μM): Cleavage of PARP and Caspase-3 is observed
